Measurements published in US8580268B2, “CpG oligonucleotide analogs containing hydrophobic T analogs with enhanced immunostimulatory activity” (Coley Pharmaceutical GmbH, priority 2006, dated 2013).
Entries after “also recorded” stand apart in the source; their conditions may differ. Strand notation (5' to 3'): a small letter for the sugar, then the base; units joined by * are phosphorothioate-linked, units joined directly phosphodiester-linked; [ ] holds rarer units or linkages, { } end groups; capitals alone tell only the bases. [5IU] = 5-iodo-2'-deoxyuridine (JU); [5EtU] = 5-ethyl-2'-deoxyuridine (EU); d = 2'-deoxy (DNA)

Legend:
human PBMC [1] = assay: IL-6 induction in human PBMC (luminex); assay type: cell-based; conditions: human PBMC from three donors, 24 h
Protocol: (§1) Peripheral blood buffy coat preparations from healthy human donors were obtained from the Blood Bank of the University of Düsseldorf (Germany) and PBMC were purified by centrifugation over Ficoll-Hypaque (Sigma). Cells were cultured in a humidified incubator at 37° C. in RPMI 1640 medium supplemented with 5% (v/v) heat inactivated human AB serum (BioWhittaker) or 10% (v/v) heat inactivated FCS, 2 mM L-glutamine, 100 U/ml penicillin and 100 μg/ml streptomycin (all from Sigma).
(§2) PBMC were resuspended at a concentration of 5×10^6 cells/ml and added to 96 well round-bottomed plates […]. PBMC were incubated with ODN and culture supernatants (SN) were collected after the indicated time points. If not used immediately, SN were stored at −20° C. until required.
(§3) Amounts of cytokines in the SN were assessed using an in-house ELISA for IFN-α developed using commercially available antibody (PBL, New Brunswick, N.J., USA) or on the Luminex multiplex system (Luminex Corporation, 12212 Technology Boulevard, Austin, Tex. 78727-6115).
Next the modified P-class ODN were tested for the ability to induce IL-6 in human PBMC. PBMC from three donors were incubated with ODN at concentrations as indicated for 24 h, followed by luminex 25-plex analysis of the supernatants for IL-6. The activity of modified P-class ODN (SEQ ID NO:58, 60-62, FIG. 28a) (SEQ ID NO:64 and 67, FIG. 28b) was compared to that of an unmodified B-class ODN (SEQ ID NO:55), and unmodified C-class ODN (SEQ ID NO:54), a negative control ODN (SEQ ID NO:53), and an unmodified P-class ODN (SEQ ID NO:56).

BALB/c mice = assay: In vivo murine IFN-alpha induction after SC injection (ELISA); design: species or system mouse; conditions: bled at 3 hr post injection
Protocol: Female BALB/c mice (6-8 weeks of age) were purchased from Charles River Canada (Quebec, Canada) and housed in micro-isolators in the Animal Care Facility at Coley Pharmaceutical Group Canada. All studies were conducted in accordance with the Animal Care Committee of Coley Canada under the guidance of the Canadian Council on Animal Care. All animals were naïve to CpG ODNs.
In order to determine the effect of the modified P-class ODN in vivo, BALB/c mice (5 per group) were injected SC with differing doses of ODN. Animals were bled at 3 hr post injection and plasma tested for IFN-alpha by ELISA. The activity of modified P-class ODN (SEQ ID NO:58, 60-62, 64, and 67) was compared to that of a B-class negative control (SEQ ID NO:55) and a negative control (SEQ ID NO:26).

SaI/N tumor cells = assay: Mouse SA1N tumor model; assay type: in vivo; conditions: A/J mice
Protocol: SA1N tumor model: Female A/J mice (10 per group) were injected SC with 5×10^5 SaI/N tumor cells on day 0. Mice were treated with 100 μg ODN or PBS alone given SC once weekly starting on day 8 post tumor induction. Animals were monitored for survival and tumor volume. Tumor size (the length and the width) was measured using a digital vernier caliper. Tumor volume was calculated by using the formula: Tumor volume=(0.4) (ab2), where a=large diameter and b=smaller diameter.
Next the modified P-class ODN were evaluated for their ability to reduce tumor volume mouse SA1N tumor model. Female A/J mice (10 per group) were injected SC with 5×10^5 SaI/N tumor cells on day 0. Mice were treated with 35 μg (FIG. 31a) or 100 μg (FIG. 31b) P-class ODN with a lipophilic substituted nucleotide analog (SEQ ID NO:60, 64, and 67), an unmodified C-class ODN, an unmodified B-class ODN (SEQ ID NO:55), or PBS alone. ODN were given SC once weekly starting on day 8 post tumor induction. Animals were monitored for survival and tumor volume.

human TLR9 = biological target: T1, human TLR9 (Homo sapiens, UniProt Q9NR96); assay: TLR9 luciferase assay (NF-κB reporter) in hTLR9-LUC-293 cells; assay type: cell-based; conditions: 16 h, stated in words relative to the comparator ODN
T1 construct: expressed in transfected cells
T1 sequence (Q9NR96 26-1032): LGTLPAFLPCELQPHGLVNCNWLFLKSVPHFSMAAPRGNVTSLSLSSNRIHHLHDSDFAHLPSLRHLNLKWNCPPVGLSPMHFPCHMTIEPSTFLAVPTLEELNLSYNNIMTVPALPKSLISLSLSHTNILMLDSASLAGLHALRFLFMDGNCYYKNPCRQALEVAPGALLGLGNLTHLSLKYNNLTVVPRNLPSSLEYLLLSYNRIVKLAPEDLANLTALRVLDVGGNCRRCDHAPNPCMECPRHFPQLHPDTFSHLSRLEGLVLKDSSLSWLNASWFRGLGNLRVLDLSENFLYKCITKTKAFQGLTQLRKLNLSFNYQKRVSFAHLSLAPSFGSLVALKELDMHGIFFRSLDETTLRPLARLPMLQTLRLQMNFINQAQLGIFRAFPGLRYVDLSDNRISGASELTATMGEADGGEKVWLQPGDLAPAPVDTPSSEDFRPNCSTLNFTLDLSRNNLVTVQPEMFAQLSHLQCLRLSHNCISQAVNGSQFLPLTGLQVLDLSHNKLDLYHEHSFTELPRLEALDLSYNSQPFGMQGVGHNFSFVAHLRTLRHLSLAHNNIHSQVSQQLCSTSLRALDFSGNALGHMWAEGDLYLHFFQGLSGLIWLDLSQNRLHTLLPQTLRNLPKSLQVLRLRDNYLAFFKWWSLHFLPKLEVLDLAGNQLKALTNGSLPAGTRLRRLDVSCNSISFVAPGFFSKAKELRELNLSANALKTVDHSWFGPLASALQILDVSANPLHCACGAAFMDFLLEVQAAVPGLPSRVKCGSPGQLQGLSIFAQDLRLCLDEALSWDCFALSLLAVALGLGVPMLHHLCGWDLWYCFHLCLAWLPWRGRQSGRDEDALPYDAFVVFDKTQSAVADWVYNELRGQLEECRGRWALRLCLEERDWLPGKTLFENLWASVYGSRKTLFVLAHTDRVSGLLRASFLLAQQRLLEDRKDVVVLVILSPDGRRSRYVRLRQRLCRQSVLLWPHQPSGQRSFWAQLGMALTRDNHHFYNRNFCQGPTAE
Protocol: HEK293 cells were transfected by electroporation with vectors expressing the respective human TLR and a 6xNF-κB-luciferase reporter plasmid. Stable transfectants (3×10^4 cells/well) were incubated indicated amounts of ODN for 16 h at 37° C. in a humidified incubator. Each data point was done in triplicate. Cells were lysed and assayed for luciferase gene activity (using the BriteLite kit from Perkin-Elmer, Zaventem, Belgium). Stimulation indices were calculated in reference to reporter gene activity of medium without addition of ODN.

human PBMC [2] = assay: IFN-alpha production in human PBMC (ELISA); assay type: cell-based
Protocol: as §1, §2, §3

[3] = 35 μg ODN SC once weekly from day 8
[4] = 100 μg ODN SC once weekly from day 8

Row | Substance | IL-6 induction (human PBMC [1]) | plasma IFN-alpha induction (BALB/c mice) | reduction in tumor volume (SaI/N tumor cells; [3]) | reduction in tumor volume (SaI/N tumor cells; [4]) | TLR9 stimulation (NF-κB luciferase activity, relative stimulation index) (human TLR9) | IFN-alpha induction (human PBMC [2]; human PBMC incubated 48 hours, ELISA, P-class ODN) | IFN-alpha production (human PBMC [2]; human PBMC, 24 h, supernatants by ELISA, B-class ODN)
1 | JU*C*G*A*C*G*T*C*G*A*T*C*G*G*C*G*C*G*C*G*C*C*G*T (DNA d[5IU]*dC*dG*dA*dC*dG*dT*dC*dG*dA*dT*dC*dG*dG*dC*dG*dC*dG*dC*dG*dC*dC*dG*dT) [SEQ ID NO:61, JU-modified P-class] | slightly higher activation of IL-6 | slightly higher IFN-alpha induction | – | – | – | – | –
2 | JU*C-G*A*C*G*T*C*G*A*T*C*G*G*C*G*C*G*C*G*C*C*G*T (DNA d[5IU]*dCdG*dA*dC*dG*dT*dC*dG*dA*dT*dC*dG*dG*dC*dG*dC*dG*dC*dG*dC*dC*dG*dT) [SEQ ID NO:60, JU-modified P-class] | slightly higher activation of IL-6 | slightly higher IFN-alpha induction | greatest reduction in tumor volume | effective in reducing tumor volume | – | – | –
3 | JU*C*G*T*C*G*A*C*G*A*T*C*G*G*C*G*G*C*C*G*C*C*G*T (DNA d[5IU]*dC*dG*dT*dC*dG*dA*dC*dG*dA*dT*dC*dG*dG*dC*dG*dG*dC*dC*dG*dC*dC*dG*dT) [SEQ ID NO:67, JU-modified fully phosphorothioate P-class] | slightly higher activation of IL-6 | – | greatest reduction in tumor volume | effective in reducing tumor volume | higher degree of TLR9 stimulation than the unmodified P class ODN | – | –
4 | JU*C-G*A*C*G*T*C*G*A*T*C*G*G*C*G*C*G*C*G*C*C*G (DNA d[5IU]*dCdG*dA*dC*dG*dT*dC*dG*dA*dT*dC*dG*dG*dC*dG*dC*dG*dC*dG*dC*dC*dG) [SEQ ID NO:58, JU-modified P-class] | slightly higher activation of IL-6 | slightly higher IFN-alpha induction | – | – | – | – | –
5 | JU*C-G*T*C*G*A*C*G*A*T*C*G*G*C*G*G*C*C*G*C*C*G*T (DNA d[5IU]*dCdG*dT*dC*dG*dA*dC*dG*dA*dT*dC*dG*dG*dC*dG*dG*dC*dC*dG*dC*dC*dG*dT) [SEQ ID NO:66, JU-modified P-class with phosphodiester bond in the CG dinucleotide] | – | – | – | – | higher degree of TLR9 stimulation than the unmodified P class ODN; also recorded: reduced activity compared to the fully phosphorothioate SEQ ID NO:67 | reduced activity compared to SEQ ID NO:67 | –
6 | T*G*T*C-G*T*T*T*T*T*T*T*T*T*T*T*T*T*T*T (DNA dT*dG*dT*dCdG*dT*dT*dT*dT*dT*dT*dT*dT*dT*dT*dT*dT*dT*dT*dT) [SEQ ID NO:1, reference compound] | – | – | – | – | – | – | virtually inactive
7 | EU*C-G*A*C*G*T*C*G*A*T*C*G*G*C*G*C*G*C*G*C*C*G (DNA d[5EtU]*dCdG*dA*dC*dG*dT*dC*dG*dA*dT*dC*dG*dG*dC*dG*dC*dG*dC*dG*dC*dC*dG) [SEQ ID NO:64, EU-modified P-class] | – | – | greatest reduction in tumor volume | effective in reducing tumor volume | higher degree of TLR9 stimulation than the unmodified P class ODN | – | –
